According to patent US20190151256A1, “Composition Including Nonanal As Active Ingredient For Preventing Hair Loss Or Stimulating Hair Development” (Industry-Academic Cooperation Foundation, Yonsei University, priority 2017, published 2019):

What was measured:
[1] = change in body weight during dermal application; settings: after 4 weeks of application, 3 mg/mouse/day dermal
Protocol: Experiments were carried out using 24 male C57BL/6N mice aged 6 weeks, which were purchased from OrientBio Inc., acclimated for two weeks in a laboratory environment, and then divided into a total of three groups (n=5) of a negative control (CON), a positive control (MXD) and a nonanal group (NN). An animal laboratory was maintained at 21±2.0° C., a relative humidity of 50±5%, on a 12-hour day/night cycle. During the experimental period, a general solid feed (chow) and water were freely offered to the mice.
To investigate a hair development effect, an 8-week-old mouse with telogen-phase hair, in which a dorsal skin color was pink, were used. The dorsal hair of the mouse was removed using a clipper for a mouse, and the sample was applied daily at 4 p.m. for 4 weeks. The test material nonanal (3 mg/mouse/day) and the control drug Minoxidil (3 mg/mouse/day) were applied after being dissolved in the vehicle (ethanol:water:propylene glycol=5:3:2), and only the vehicle was applied to the negative control group.
A body weight of the experimental animal from immediately before the application of an agent for hair development to the end of the application was measured weekly.

hair follicles = experiment: histological analysis of dorsal skin; type: in vivo, C57BL/6N mice; settings: 4 weeks of application
Source text: The experimental animals were sacrificed after four weeks of the application, and a dorsal skin tissue specimen was extracted from the test material-applied region using scissors and forceps, and then fixed with formalin. By steps, the resulting specimen was dehydrated with an alcohol and xylene, embedded in paraffin, sliced into a 5-μm fragment using a microtome, and treated again with an alcohol and xylene to remove paraffin. After hematoxylin-eosin staining, a histological change in hair follicle tissue was observed using an optical microscope. The hair development cycle was evaluated by a pathologist, the number and diameter of hair follicles were measured using an optical microscope, and the number of hair follicles in the test group was measured under a 40× optical microscope.

diarrhea-induced mice = settings: cited from earlier work
β-catenin [2] = experiment: Western blot of dorsal skin tissue; type: in vivo, mouse; settings: Western blotting
Protocol: A predetermined amount of skin tissue was homogenized with liquid nitrogen and a lysis buffer using a mortar and centrifuged at 13,000×g and 4° C. for 20 minutes to obtain an intermediate layer, and then a protein was quantified by the Bradford method. 50 μg of the protein was subjected to electrophoresis on an SDS polyacrylamide gel and electroblotted onto a PVDF hyperfilm, and then reacted with a β-catenin or β-actin antibody (Cell Signaling Technology, Danvers, Mass., USA). A signal of each protein was visualized using a chemiluminescent detection system (Amersham), and then a band thickness was quantified using the Quantity One Analysis Software (Bo-Rad Laboratories).

telogen-phase hair = experiment: hair development state and hair length in shaved mice; type: in vivo, C57BL/6N mice; settings: dermal 3 mg/mouse/day
Protocol: To visually examine a hair growth state, 1, 2, 3, and 4 weeks after the application started, the experimental animals were slightly anesthetized with ether, and a dorsal region was photographed. To evaluate the degree of hair growth, the hair length was measured using a ruler.

rabbits = settings: transdermal; cited from earlier work
rats = settings: oral; cited from earlier work
[3] = clinical studies, 1% solution; cited from earlier work
T-Cell factor (TCF) = experiment: q-PCR gene expression in dorsal skin tissue; type: in vivo, mouse; settings: 4 weeks
Protocol: (§1) To quantify total RNA in skin tissue of the experimental animals, 1 mL of a TRIzol solution was added to 50 to 100 mg of skin tissue and homogenized, and then centrifuged at 4° C. and 12,000×g for 10 minutes. The supernatant was transferred to a new tube, 200 μl of chloroform was added, and then the resulting mixture was vigorously shaken. This process was repeated twice, then the supernatant was transferred to a new tube, in which isopropanol and the supernatant were added in a ratio of 1:1. The resulting mixture was shaken 10 times, and maintained at room temperature for 10 minutes and centrifuged at 12,000×g and 4° C. for 10 minutes to remove the supernatant. Then, 1 ml of 70% ethanol was added to the remaining pellet and centrifuged at 7,500×g and 4° C. for 5 minutes. Following the removal of ethanol, a tube containing the RNA pellet was dried at room temperature for 5 minutes, and the RNA pellet was dissolved in nuclease-free water. Concentrations of the extracted RNA specimens at 260 nm and 280 nm wavelengths were measured using a UV/VIS spectrophotometer (Beckman Coulter, DU730), and agarose gel electrophoresis was performed to confirm the integrity of the RNA specimens.
(§2) Following the isolation of RNA, cDNA was synthesized by performing reverse transcription using an oligo dT primer and a Superscript reverse transcriptase (Gibco BRL, Gaithersburg, Md., USA). To measure expression levels of genes, real-time q-PCR was performed using SYBR Green (Bio-Rad, Hercules, Calif., USA), and the instrument used was a CFX Connect™ Real-Time PCR Detection System (Bio-Rad).
(§3) For real time PCR, 2 μL of cDNA, 10 μL of a 2× SYBR mix, 1 μL each of a forward primer and a reverse primer (10 to 20 pmol/μL) were added, and then, H2O was filled to the final volume 20 μL. A PCR extension step was performed as follows, and 35 extension cycles was performed. The extension was performed at 95° C. for 1 minute for hot start, at 95° C. for 15 seconds for denaturation in the extension step, at 55° C. for 30 seconds for annealing, and at 72° C. for 1 minute for extension. After all cycles were completed, to identify primer specificity, melting curve analysis was performed.
(§4) Change in expression of a β-catenin signaling material known as a mechanism for promoting hair development in skin tissue was analyzed by q-PCR analysis on dorsal skin tissue of a mouse to which the test material was applied for 4 weeks.

Cyclin D1 = experiment: q-PCR gene expression in dorsal skin tissue; type: in vivo, mouse; settings: 4 weeks
Protocol: as §1, §2, §3, §4

[4] = tested on: Lymphoid enhancer factor (LEF); experiment: q-PCR gene expression in dorsal skin tissue; type: in vivo, mouse; settings: 4 weeks
Protocol: as §1, §2, §3, §4

β-catenin [5] = experiment: q-PCR gene expression in dorsal skin tissue; type: in vivo, mouse; settings: 4 weeks
Protocol: as §1, §2, §3, §4

**Q.** For Nc1cc(N2CCCCC2)nc(N)[n+]1[O-] [Minoxidil], which “body weight, difference between test groups” value [1] is on record?
**A.** no significant difference

**Q.** With CCCCCCCCC=O [nonanal] as the compound, how does the “increase in number of hair follicles compared with negative control” value (hair follicles) read?
**A.** 166%

**Q.** What about the “microscopy of hair follicles” value (hair follicles) of the same compound?
**A.** hair follicles elongated to come out of the skin

**Q.** What about the “increase in hair follicle diameter compared with negative control” value (hair follicles; image analysis) of the same compound?
**A.** 38%

**Q.** And the inhibition of diarrhea (diarrhea-induced mice)?
**A.** significant effect in inhibition of diarrhea

**Q.** And the “increase in β-catenin protein expression compared with negative control” value (β-catenin [2])?
**A.** 71%

**Q.** And the “β-catenin protein expression effect compared with Minoxidil group” value (β-catenin [2])?
**A.** superior to that of the Minoxidil group

**Q.** And the “hair length at three weeks” value (telogen-phase hair; 3 weeks)?
**A.** significantly increased

**Q.** What about the “visual hair growth after 4 weeks” value (telogen-phase hair; 4 weeks, vs negative control) of the same compound?
**A.** hair grew more evenly and fully in more individuals than that in the negative control group

**Q.** What about the “increase in hair length compared with negative control” value (telogen-phase hair; after four weeks, p<0.001) of the same compound?
**A.** 434%

**Q.** What about the “visual hair growth (onset)” value (telogen-phase hair; weekly photographs) of the same compound?
**A.** from three weeks of the application, hair began to grow

**Q.** What about the LD50 value (rabbits) of the same compound?
**A.** 5,000 mg/kg

**Q.** And the “lethal dose 50% (LD50 value)” value (rats)?
**A.** 5,000 mg/kg

**Q.** What about the “dermal irritation or sensitization reaction” value [3] of the same compound?
**A.** no dermal irritation or sensitization reaction

**Q.** And the “TCF gene expression compared with negative control” value (T-Cell factor (TCF))?
**A.** significantly increased

**Q.** What about the “cyclin D1 gene expression compared with negative control” value (Cyclin D1) of the same compound?
**A.** significantly increased

**Q.** What about the “LEF gene expression compared with negative control” value [4] of the same compound?
**A.** significantly increased

**Q.** And the “β-catenin gene expression compared with negative control” value (β-catenin [5])?
**A.** significantly increased
